# Data taken from patent US20250040935A1, “FABRICATION OF RADIOPAQUE RESORBABLE HYDROGEL BEADS VIA MICROFLUIDICS FOR CATHETER EMBOLIZATION APPLICATIONS” (Saint Louis University, priority 2023, published 2025).
# How the values were obtained:
# Format in all cases: physicochemical
# [1] = Apalutamide and docetaxel microsphere release study; settings: within the first 24 hrs; microspheres, PEG and 20% w/v 1 μm BaSO4 groups
# Method: Barium microspheres (20% w/v) were fabricated using the T-junction and then frozen overnight at −80 degrees Celsius. The next morning the microspheres were lyophilized for 1 day. Once the microspheres were fully lyophilized, they were then swollen in 10 μL 0.5 mg/mL docetaxel and apalutamide for 1 day. The next day, the excess drug was removed from the centrifuge tube and 500 μL 80:20 ethanol to DI water was added. A release study was then preformed as described above and the release profile for 20% barium microspheres was obtained.
# [2] = Docetaxel release from PEG gels/microspheres (Example 1); settings: in the first 60 minutes, loaded at 0.1 mg/ml, released in 20:80 anhydrous ethanol:di-water
# Method: Docetaxel release and in vivo efficacy. Docetaxel was released from the PEG microspheres over several hours, with 60% released in the first 60 minutes (FIG. 2A). For bulk release experiments, docetaxel was dissolved in anhydrous ethanol, loaded in PEG gels at 0.1 mg/ml and released in a 20:80 anhydrous ethanol:di-water. Release was followed by absorbance measurements at 220 nm. […] PC3 cells (2×10^6 cells) were injected and grown to ˜120 mm^3 tumor volume prior to treatment.
# [3] = Apalutamide and docetaxel bulk release from hydrogels; settings: after 24 h; from both PEG-only and 20% BaSO4 hydrogel
# Method: To determine bulk release of drugs from hydrogels, acridine orange (AO), docetaxel, bicalutamide, and apalutamide release into a sink volume was measured. Samples from the sink volume were taken over time and then the amount of sample volume that was taken out was replaced with the same amount of sink solution. The sink solution for AO experiments was PBS and the sink solution used for docetaxel, bicalutamide, and apalutamide was 80:20 ethanol to DI water. The absorbance of each sample solution was measured to calculate the concentration of drug in the sample solution. The equation used to calculate these concentrations was from the standard curves obtained for each drug or acridine orange (AO). The concentrations of drugs or AO in solution allowed for quantifying each drug release profile as well as their diffusion coefficient from a hydrogel. Apalutamide (0.5 mg/mL) stock solution was prepared in 80:20 DMSO or ethanol and DI water. A standard curve was constructed for apalutamide by creating samples of known concentrations and measuring the absorbance at 260 nm of each sample. Hydrogels were then fabricated with conditions: PEG+Doc+Apa and PEG+BaSO4+Doc+Apa (Table 6). […] Absorbances of 230 nm and 260 nm were measured for each sample to be able to obtain concentrations of docetaxel and apalutamide released into solution.
SMILES,initial burst release [1] [%],docetaxel released [2] [%],drug released [3] [%]
CNC(=O)c1ccc(N2C(=S)N(c3cnc(C#N)c(C(F)(F)F)c3)C(=O)C23CCC3)cc1F [Apalutamide],~80,,
CC(=O)O[C@@]12CO[C@@H]1C[C@H](O)[C@@]1(C)C(=O)[C@H](O)C3=C(C)[C@@H](OC(=O)[C@H](O)[C@@H](NC(=O)OC(C)(C)C)c4ccccc4)C[C@@](O)([C@@H](OC(=O)c4ccccc4)[C@H]21)C3(C)C [Docetaxel],~90,60,~90
